Data taken from patent US7157455B2, “4-Aminopyrimidine-5-one derivatives” (Hoffmann-La Roche Inc., priority 2003, dated 2007).
Like-named read-outs stand apart in the source and are kept apart here.

Legend:
[1] = molecular target: human cyclin D1-CDK4 (Homo sapiens, UniProt P11802); test: FlashPlate kinase assay, IC50 measurement, cyclin D1-CDK4; type: biochemical; conditions: Rb protein substrate, 1 μM ATP
Method: (§1) To determine inhibition of Cdk4, Cdk2 and Cdk1 activity, kinase assays were conducted using FlashPlate™ assays (NEN™-Life Science Products). FlashPlate assays were performed using recombinant human cyclin B-CDK1, human cyclin E-CDK2 or human cyclin D1-CDK4 complexes. GST-cyclinE (GST-cycE), CDK2, GST-cyclinB (GST-cycB), CDK1, GST-CDK4 and cyclin D1 (cycD1) cDNA clones in baculovirus vectors were provided by Dr. W. Harper at the Baylor College of Medicine, Houston, Tex. Proteins were co-expressed in High Five™ insect cells and the complex was purified on glutathione Sepharose resin (Pharmacia, Piscataway, N.J.) as previously described (Harper, J. W. et al. Cell 1993, 75, 805–816). A 6×-Histidine tagged truncated form of retinoblastoma (Rb) protein (amino acid 386–928) was used as the substrate for the cycD1-CDK4, cycB-CDK1 and the cycE-CDK2 assays (the expression plasmid was provided by Dr. Veronica Sullivan, Department of Molecular Virology, Roche Research Centre, Welwyn Garden City, United Kingdom). The Rb protein is a natural substrate for phosphorylation by CDK4, CDK2 and CDK1 (see Herwig and Strauss Eur. J. Biochem. Vol. 246 (1997) pp. 581–601 and the references cited therein).
(§2) The expression of the 62 Kd protein was under the control of an IPTG inducible promoter in an M15 E. coli strain. Cells were lysed by sonication and purification was carried out by binding lysates at pH 8.0 to a Ni-chelated agarose column pretreated with 1 mM imidazole. The resin was then washed several times with incrementally decreasing pH buffers to pH 6.0, and eluted with 500 mM imidazole. Eluted protein was dialysed against 20 mM HEPES pH 7.5, 30% glycerol, 200 mM NaCl, and 1 mM DTT. Purified Rb fusion protein stocks were quantitated for protein concentration, aliquoted, and stored at −70° C.
(§3) For all three kinase assays reported herein, 96-well FlashPlates were coated with Rb protein at 10 μg/ml, using 100 μl per well. Plates were incubated at 4° C. overnight or at room temperature for 3 hours on a shaker. To control for nonspecific phosphorylation, one row of wells was coated with 100 μl/well coating buffer (20 mM HEPES, 0.2 M NaCl). Plates were then washed twice with wash buffer (0.01% Tween 20 in phosphate-buffered saline). Compounds to be tested (“test compounds”) were added to the wells at 5× final concentration. Reactions were initiated by immediate addition of 40 μl reaction mix (25 mM HEPES, 20 mM MgCl2, 0.002% Tween 20, 2 mM DTT, 1 μM ATP, 4 nM ^33P-ATP) and a sufficient amount of enzyme to give counts that were at least 10-fold above background. Plates were incubated at room temperature on a shaker for 30 minutes. Plates were washed four times with the wash buffer, sealed, and counted on the TopCount scintillation counter (Packard Instrument Co., Downers Grove, Ill. The percent inhibition of Rb phosphorylation, which is a measure of the inhibition of CDK activity, was determined according to the following formula:
(§4) [formula] where “test compound” refers to the average counts per minute of the test duplicates, “nonspecific” refers to the average counts per minute when no CyclinD/Cdk4, etc., was added, and “total” refers to the average counts per minute when no compound was added. The IC50 value is the concentration of test compound that reduces by 50% the protein-kinase induced incorporation of the radiolabel under the test conditions described. B: Ki Measurement

[2] = molecular target: human cyclin B-CDK1 (Homo sapiens, UniProt P06493); test: FlashPlate kinase assay, IC50 measurement, cyclin B-CDK1; type: biochemical; conditions: Rb protein substrate, 1 μM ATP
Chain of human cyclin B-CDK1 (P06493 whole entry): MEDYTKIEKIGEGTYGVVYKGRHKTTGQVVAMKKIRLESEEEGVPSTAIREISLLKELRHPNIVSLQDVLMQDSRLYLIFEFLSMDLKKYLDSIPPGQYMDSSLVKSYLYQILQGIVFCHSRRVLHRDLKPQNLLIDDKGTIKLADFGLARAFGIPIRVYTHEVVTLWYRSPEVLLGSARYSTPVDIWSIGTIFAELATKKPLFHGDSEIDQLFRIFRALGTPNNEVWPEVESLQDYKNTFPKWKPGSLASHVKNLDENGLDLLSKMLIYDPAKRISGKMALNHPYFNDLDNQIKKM
Chain of human cyclin B-CDK1 (P14635 whole entry partner): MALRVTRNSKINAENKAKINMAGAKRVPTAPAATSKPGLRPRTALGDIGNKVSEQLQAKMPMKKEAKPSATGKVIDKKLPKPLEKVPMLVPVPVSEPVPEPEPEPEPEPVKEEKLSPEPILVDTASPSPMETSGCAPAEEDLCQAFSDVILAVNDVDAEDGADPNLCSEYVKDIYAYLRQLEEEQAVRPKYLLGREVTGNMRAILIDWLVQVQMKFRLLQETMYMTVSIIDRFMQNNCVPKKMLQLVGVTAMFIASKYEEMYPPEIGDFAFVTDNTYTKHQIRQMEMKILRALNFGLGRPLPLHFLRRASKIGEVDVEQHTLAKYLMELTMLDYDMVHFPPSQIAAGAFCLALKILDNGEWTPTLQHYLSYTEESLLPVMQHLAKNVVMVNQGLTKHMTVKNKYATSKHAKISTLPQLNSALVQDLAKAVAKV
Method: as §1, §2, §3, §4

[3] = molecular target: human cyclin E-CDK2 (Homo sapiens, UniProt P24941); test: FlashPlate kinase assay, IC50 measurement, cyclin E-CDK2; type: biochemical
Method: To determine inhibition of Cdk4, Cdk2 and Cdk1 activity, kinase assays were conducted using FlashPlate™ assays (NEN™-Life Science Products). FlashPlate assays were performed using recombinant human cyclin B-CDK1, human cyclin E-CDK2 or human cyclin D1-CDK4 complexes. GST-cyclinE (GST-cycE), CDK2, GST-cyclinB (GST-cycB), CDK1, GST-CDK4 and cyclin D1 (cycD1) cDNA clones in baculovirus vectors were provided by Dr. W. Harper at the Baylor College of Medicine, Houston, Tex.
as §2, §3
[formula] where “test compound” refers to the average counts per minute of the test duplicates, “nonspecific” refers to the average counts per minute when no CyclinD/Cdk4, etc., was added, and “total” refers to the average counts per minute when no compound was added. […] B: Ki Measurement

[4] = tested on: HCT116 cells; test: Tetrazolium dye proliferation assay (MTT assay); type: cell-based; conditions: Homo sapiens, HCT-116; 90% inhibition of cell proliferation, HCT116 colorectal carcinoma cell line
Method: The cell line used was HCT116, a colorectal carcinoma cell line obtained from the American Type Cell Culture Collection (ATCC; Rockville, Md.). The cells were grown in McCoy's 5A medium supplemented with 10% FCS and L-glutamine.
Cells were plated at the appropriate seeding density to give logarithmic growth over the course of the assay in a 96-well tissue culture plate. Plates were incubated overnight at 37° C. in a humidified incubator with 5% CO2. The next day, test compounds were serially diluted to four times the final concentration in the appropriate medium containing 1.2% DMSO. One-fourth final volume of each dilution was added in duplicate to the plates containing cells. The same volume of 1.2% DMSO in medium was added to a row of “control wells” such that the final concentration of DMSO in each well was 0.3%. Wells to which no cells were added served as the “blank.” Wells to which no inhibitor was added served as “no inhibitor control.” The plates were) returned to the incubator, and at set time points (determined by their growth curves) plates were analyzed as described below.
3-(4,5-dimethylthiazole-2-yl)-2,5-diphenyl-2H-tetrazolium bromide (thiazolyl blue; MTT; Sigma) was added to each well to yield a final concentration of 1 mg/ml. Plates were returned to the incubator for 2.5–3 hours at 37° C. The MTT-containing medium was removed and the resulting formazan metabolite was solubilized in 100% ethanol with shaking for 15 minutes at room temperature. Absorbance readings were taken in a microtiter plate reader (Dynatech and Molecular Devices plate readers were used interchangeably) at a wavelength of 570 nm with a 650 nm reference. Percent inhibition (% INH) is calculated by subtracting the absorbance of the blank well from all wells, then subtracting the ratio of the average absorbance of each test duplicate (SAVE) by the average of the controls (CAVE) from 1.00. The final number is then multiplied by 100(% INH=(1.00−SAVE/CAVE)×100).

[5] = Rb protein substrate, 1 μM ATP, read-out: CDK2 IC50
[6] = Rb protein substrate, 1 μM ATP, unit inferred, read-out: CDK2 IC50

Chain of human cyclin D1-CDK4 (P11802 whole entry): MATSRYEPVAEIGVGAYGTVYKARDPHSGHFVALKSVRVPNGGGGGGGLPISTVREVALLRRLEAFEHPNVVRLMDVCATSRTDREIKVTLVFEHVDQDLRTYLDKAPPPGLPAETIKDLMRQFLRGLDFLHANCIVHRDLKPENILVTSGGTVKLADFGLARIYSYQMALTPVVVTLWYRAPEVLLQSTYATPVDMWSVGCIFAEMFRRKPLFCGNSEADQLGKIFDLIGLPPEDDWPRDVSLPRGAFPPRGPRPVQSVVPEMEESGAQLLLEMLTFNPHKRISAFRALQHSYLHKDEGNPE
Chain of human cyclin D1-CDK4 (P24385 whole entry partner): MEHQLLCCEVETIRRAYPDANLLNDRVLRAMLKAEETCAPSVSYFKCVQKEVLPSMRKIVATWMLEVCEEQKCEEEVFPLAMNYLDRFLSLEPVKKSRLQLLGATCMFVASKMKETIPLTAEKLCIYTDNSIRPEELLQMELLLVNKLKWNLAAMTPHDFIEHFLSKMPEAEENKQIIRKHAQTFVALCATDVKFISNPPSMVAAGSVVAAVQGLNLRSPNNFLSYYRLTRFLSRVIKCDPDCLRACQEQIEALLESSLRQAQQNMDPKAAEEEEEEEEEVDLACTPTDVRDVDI

| SMILES | IC50 [1] | IC50 [2] | IC90 [4] | melting point | other results |
| --- | --- | --- | --- | --- | --- |
| COc1cc(F)c(F)c(F)c1C(=O)c1cnc(NC2CCN(S(C)(=O)=O)CC2)nc1N [Example 207, [4-Amino-2-(1-methanesulfonyl-piperidin-4-ylamino)-pyrimidin-5-y]-(2,3,4-trifluoro-6-methoxy-phenyl)-methanone] | 1 nM | 5 nM | 630 nM | – | IC50 [3]: 2 nM |
| COc1ccc(F)c(F)c1C(O)c1cnc(Cl)nc1Cl (racemic) [Example 287, rac-(2,4-Dichloro-pyrimidin-5-yl)-(2,3-difluoro-6-methoxy-phenyl)-methanol] | – | – | – | 99 to 101 °C | – |
| COc1ccc(F)c(F)c1C(=O)c1cnc(Cl)nc1N [Example 289, (4-Amino-2-chloro-pyrimidin-5-yl)-(2,3-difluoro-6-methoxy-phenyl)-methanone] | – | – | – | 238 to 239 °C (dec.) | – |
| COc1ccc(F)c(F)c1C(=O)c1cnc(N[C@H]2CC[C@H](NCCO)CC2)nc1N [Example 290, Trans-[4-Amino-2-[4-(2-hydroxy-ethylamino)-cyclohexylamino]-pyrimidin-5-yl}-(2,3-difluoro-6-methoxy-phenyl)-methanone] | 20 nM | 18 nM | 179 nM | – | IC50 [3, 5]: 5 nM |
| COc1ccccc1C(=O)c1cnc(Nc2ccc(N3CCN(C(C)C)CC3)cc2)nc1N [Example 8, [4-Amino-2-[4-(4-isopropyl-piperazin-1-yl)-phenylamino]-pyrimidin-5-yl]-(2-methoxy-phenyl)-methanone] | 171 nM | 3560 nM | 20900 nM | – | IC50 [3, 5]: 10000 nM |
| CCS(=O)(=O)c1ncc(C(=O)c2cc(F)ccc2OC)c(N)n1 [Example 48, (4-Amino-2-ethanesulfonyl-pyrimidin-5-yl)-(5-fluoro-2-methoxy-phenyl)-methanone] | – | – | – | 174 to 175 °C | – |
| COc1ccc(F)c(F)c1C(=O)c1cnc(NC2CCN(S(N)(=O)=O)CC2)nc1N [Example 285, 4-[4-Amino-5-(2,3-difluoro-6-methoxy-benzoyl)-pyrimidin-2-ylamino]-piperidine-1-sulfonic acid amide] | – | – | – | 217 to 218 °C | – |
| COc1ccc(F)c(F)c1C(=O)c1cnc(N[C@H]2CC[C@H](N3CCCS3(=O)=O)CC2)nc1N [Example 298, Trans-[4-Amino-2-[4-(1,1-dioxo-1λ^6-isothiazolidin-2-yl)-cyclohexylamino]-pyrimidin-5-yl]-(2,3-difluoro-6-methoxy-phenyl)-methanone] | 5 nM | 28 nM | 320 nM | – | IC50 [3, 5]: 8 nM |
| COc1ccc(F)c(F)c1C(=O)c1cnc(N[C@H]2CC[C@H](NS(=O)(=O)CCCN3CCOCC3)CC2)nc1N [Example 294, Trans-3-Morpholin-4-yl-propane-1-sulfonic acid [4-[4-amino-5-(2,3-difluoro-6-methoxy-benzoyl)-pyrimidin-2-ylamino]-cyclohexyl]-amide] | 15 nM | 8 nM | 374 nM | – | IC50 [3, 5]: 5 nM |
| COc1ccc(F)c(F)c1C(=O)c1cnc(Cl)nc1Cl [Example 288, (2,4-Dichloro-pyrimidin-5-yl)-(2,3-difluoro-6-methoxy-phenyl)-methanone] | – | – | – | 137 to 139 °C | – |
| CC[S+]([O-])c1ncc(C(=O)c2cc(F)ccc2OC)c(N)n1 (stereo not drawn) [Example 163, (4-Amino-2-ethanesulfinyl-pyrimidin-5-yl)-(5-fluoro-2-methoxy-phenyl)-methanone] | – | – | – | 150 to 152 °C | – |
| COc1ccc(F)c(F)c1C(=O)c1cnc(NC2CCN(S(=O)(=O)CCCN3CCN(C)CC3)CC2)nc1N [Example 228, (4-Amino-2-[1-[3-(4-methyl-piperazin-1-yl)-propan-1-sulfonyl]-piperidin-4-ylamino]-pyrimidin-5-yl)-(2,3-difluoro-6-methoxy-phenyl)-methanone] | 1 nM | 39 nM | 274 nM | – | IC50 [3, 6]: 17 nM |
| COc1ccc(F)cc1C(=O)c1cnc(NC2CCN(C(=O)OC(C)(C)C)CC2)nc1N [Example 164, 4-[4-Amino-5-(5-fluoro-2-methoxy-benzoyl)-pyrimidin-2-ylamino]-piperidine-1-carboxylic acid tert-butyl ester] | – | – | – | 122 to 124 °C (dec.) | – |
| COC(=O)N1CCCC(Nc2ncc(C(=O)c3ccccc3OC)c(N)n2)C1 (stereo not drawn) [Example 54, 3-[4-Amino-5-(2-methoxy-benzoyl)-pyrimidin-2-ylamino]-piperidine-1-carboxylic acid methyl ester] | 459 nM | 469 nM | 6440 nM | – | IC50 [3, 5]: 713 nM |
| COc1ccc(F)c(F)c1C(=O)c1cnc(NC2CCN(C=O)CC2)nc1N [Example 284, 4-[4-Amino-5-(2,3-difluoro-6-methoxy-benzoyl)-pyrimidin-2-ylamino]-piperidine-1-carbaldehyde] | – | – | – | 263 °C (dec.) | – |
| COc1ccc(F)c(F)c1C(=O)c1cnc(NC2CCN(S(=O)(=O)NC(C)=O)CC2)nc1N [Example 286, 4-[4-Amino-5-(2,3-difluoro-6-methoxy-benzoyl)-pyrimidin-2-ylamino]-piperidine-1-sulfonic acid acetyl-amide] | – | – | – | 153 °C (dec.) | – |
| COc1cc(F)c(F)c(F)c1C(=O)c1cnc(NC2CCN(C(C)=O)CC2)nc1N [Example 204, 1-[4-[4Amino-5-(2,3,4-trifluoro-6-methoxy-benzoyl)-pyrimidin-2-ylamino]-piperidin-1-yl]-ethanone] | 10 nM | 128 nM | 2400 nM | – | IC50 [3, 6]: 51 nM |
| CS(=O)(=O)N1CCC(Nc2ncc(C(=O)c3ccccc3)c(N)n2)CC1 [Example 283, [4-Amino-2-(1-methanesulfonyl-piperidin-4-ylamino)-pyrimidin-5-yl]-phenyl-methanone] | – | – | – | 249 to 250 °C | – |
